Data: PMC7083880 (Nature Communications, 2020)

Key:
nonsense mutations = test system: nonsense mutations; parameters: method as in PMID 28096517; details: cited from earlier work
HeLa cells [1] = assay: MTT colorimetric toxicity assay; format: cell-based; details: STS 2µM, 24 h
Procedure: incubated in cell culture medium containing 0.5 mg/ml 3-(4,5-dimethylthiazol-2-yl)-2,5-diphenyltetrazolium bromide (MTT) for 2 h at 37°C. The cells were then incubated for 30 min at 37°C in the solubilization solution (isopropanol/1N HCl 23:1) before collecting the supernatant to measure the absorbance at 540 and 620 nm for the background.
Supplementary Figure 4. […] (A) HeLa cells were incubated with propidium iodide after […]
staurosporine (STS). (B) HeLa cells were incubated with MTT after treatment for 24 h with […]
The results presented are representative of two independent experiments at least. Error bar= S.D., p-values (p) were calculated using Student's t-test. Source data are provided as a Source Data file.
(also on this page, place not known: % dead Colorimetry measure (au) cells of) […]

HeLa cells [2] = assay: Toxicity assay: adenylate kinase activity in culture medium; format: cell-based, human; details: 24 h; for Adenylate kinase activity in culture medium: STS 2µM
Procedure: The toxicity assay was performed 24 h after starting cell treatment. The cell culture supernatant was centrifuged at 6000×g for 10 min to pellet cells and cell debris. One-twentieth of the supernatant was then used to measure adenylate kinase activity according to the supplier’s protocol (Lonza Biosciences, Basel, Switzerland).

[3] = test system: L5178Y TK+/− mouse lymphoma cells
Procedure: The idea was to reproduce the metabolizing conditions prevailing in the liver.
This was followed by a 24-h recovery period when the experiment was performed in the presence of Aroclor-induced rat liver S9 metabolizing mix (at 2% final concentration). […] The nuclei were then stained with Giemsa before counting the micronuclei among 1000 mononucleated cells.

## Nc1ncnc(N[C@@H]2O[C@H](CO)[C@@H](O)[C@H]2O)c1[N+](=O)[O-] [clitocine, (2R,3R,4S,5R)-2-[(6-amino-5-nitropyrimidin-4-yl)amino]-5-(hydroxymethyl)oxolane-3,4-diol]
Nonsense mutations
  Nonsense mutation correction compared to G418: correct nonsense mutations more efficiently than G418

## CN[C@@H]1C[C@H]2O[C@@](C)([C@@H]1OC)n1c3ccccc3c3c4c(c5c6ccccc6n2c5c31)C(=O)NC4 [STS, staurosporine, reference compound]
HeLa cells [1]; average
  MTT colorimetry measure: 0.183 au
HeLa cells [1]; experiment 1
  MTT colorimetry measure: 0.0455 au
HeLa cells [1]; experiment 2
  MTT colorimetry measure: 0.1825 au
HeLa cells [1]; experiment 3
  MTT colorimetry measure: 0.321 au
HeLa cells [2]
  Release of adenylate kinase, in words: released adenylate kinase
HeLa cells [2]; average
  Adenylate kinase activity in culture medium: 1755878
HeLa cells [2]; experiment 1
  Adenylate kinase activity in culture medium: 1822755
HeLa cells [2]; experiment 2
  Adenylate kinase activity in culture medium: 1498272
HeLa cells [2]; experiment 3
  Adenylate kinase activity in culture medium: 1946608

## O=P1(N(CCCl)CCCl)NCCCO1 (centres unmarked) [Cyclopho sphamide, cyclophosphamide]
[3]
  Micronucleated cells: 60
